Where two headings read alike, the source gives them in different places.
Key:
B-Raf [1] = molecular target: B-Raf (Homo sapiens (Human), UniProt P15056); assay: B-Raf kinase activity biochemical assay (AlphaScreen, biotin-MEK1 phosphorylation); details: B-Raf
Outline: (§1)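 Compounds from a 0.1 mM DMSO stock were tested at 8 serially diluted points. Kinase reactions with 100 μM ATP (final) ran 45 min at room temperature, then were stopped with EDTA buffer containing anti-phospho-MEK1/2 antibody plus streptavidin donor and protein A acceptor beads.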

B-Raf [2] = assay: as above; details: for Biochemical activity ratio B/V600E: ratio of IC50 B-Raf / B-Raf V600E; for Biochemical activity ratio B/C: ratio of IC50 B-Raf / c-Raf-1
Outline: as §1

B-Raf V600E = B-Raf V600E (Homo sapiens (Human), UniProt P15056, V600E); assay: B-Raf V600E kinase activity biochemical assay (AlphaScreen, biotin-MEK1 phosphorylation); details: for IC50: B-Raf V600E; for Biochemical activity ratio V600E/C: ratio of IC50 B-Raf V600E / c-Raf-1
B-Raf V600E, sequence (P15056 whole entry V600E): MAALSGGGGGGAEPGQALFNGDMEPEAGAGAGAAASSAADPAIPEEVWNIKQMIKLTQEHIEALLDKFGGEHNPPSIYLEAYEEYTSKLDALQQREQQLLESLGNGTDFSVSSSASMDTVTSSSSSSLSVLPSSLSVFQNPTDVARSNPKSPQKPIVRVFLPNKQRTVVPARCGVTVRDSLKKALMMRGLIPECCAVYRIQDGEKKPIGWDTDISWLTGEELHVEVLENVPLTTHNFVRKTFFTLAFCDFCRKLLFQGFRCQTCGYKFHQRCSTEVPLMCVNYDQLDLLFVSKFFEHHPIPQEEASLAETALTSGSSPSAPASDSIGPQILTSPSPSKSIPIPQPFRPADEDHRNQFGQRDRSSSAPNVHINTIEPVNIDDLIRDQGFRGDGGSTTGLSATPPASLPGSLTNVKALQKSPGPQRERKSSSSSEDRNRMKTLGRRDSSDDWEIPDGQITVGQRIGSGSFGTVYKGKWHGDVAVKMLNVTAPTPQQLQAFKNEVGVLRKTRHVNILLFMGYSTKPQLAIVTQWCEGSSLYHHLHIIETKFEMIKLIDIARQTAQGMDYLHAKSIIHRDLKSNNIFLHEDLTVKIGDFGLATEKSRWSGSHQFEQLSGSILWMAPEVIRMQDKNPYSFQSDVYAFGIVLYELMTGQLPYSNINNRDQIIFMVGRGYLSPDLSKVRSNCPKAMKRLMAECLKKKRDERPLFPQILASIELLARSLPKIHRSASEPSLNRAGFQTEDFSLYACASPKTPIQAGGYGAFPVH
Outline: as §1

c-Raf-1 = c-Raf-1 (Homo sapiens, UniProt P04049); assay: c-Raf-1 kinase activity biochemical assay (AlphaScreen, biotin-MEK1 phosphorylation)
c-Raf-1, sequence (P04049 whole entry, looked up): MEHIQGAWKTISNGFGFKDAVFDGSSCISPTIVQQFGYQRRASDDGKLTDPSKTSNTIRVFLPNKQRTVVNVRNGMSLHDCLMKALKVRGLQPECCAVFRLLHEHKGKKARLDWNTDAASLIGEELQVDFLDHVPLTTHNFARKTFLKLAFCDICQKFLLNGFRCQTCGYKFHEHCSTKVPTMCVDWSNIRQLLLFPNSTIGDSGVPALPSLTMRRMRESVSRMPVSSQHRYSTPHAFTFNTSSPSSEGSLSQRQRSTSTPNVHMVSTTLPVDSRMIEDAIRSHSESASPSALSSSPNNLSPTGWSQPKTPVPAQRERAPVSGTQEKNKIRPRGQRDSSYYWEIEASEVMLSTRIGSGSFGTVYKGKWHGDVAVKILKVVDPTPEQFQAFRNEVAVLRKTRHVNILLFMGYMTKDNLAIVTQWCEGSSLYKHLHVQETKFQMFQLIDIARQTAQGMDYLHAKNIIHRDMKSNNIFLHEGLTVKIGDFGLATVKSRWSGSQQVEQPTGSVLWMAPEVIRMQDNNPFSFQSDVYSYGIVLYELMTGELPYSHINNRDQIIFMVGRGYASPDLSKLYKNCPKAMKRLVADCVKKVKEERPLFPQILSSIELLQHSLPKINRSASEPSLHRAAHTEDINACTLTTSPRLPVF
Outline: as §1

[3] = Relative solubility by turbidity threshold concentration in aqueous buffers (pH 1.5, 4.5, 6.8, 7.4); format: physicochemical; details: for turbidity threshold (L, M, H) 1.4: pH 1.4 [sic] (method: SGF pH 1.5); for turbidity threshold (L, M, H) 4.5: pH 4.5 (SIF); for turbidity threshold (L, M, H) 6.8: pH 6.8 (SIF); for turbidity threshold (L, M, H) 7.4: pH 7.4 (HEPES)
Outline: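 Solubility class (high >250 μM, moderate 31.3–250 μM, low <31.3 μM) comes from the concentration where absorbance reaches a 0.01 threshold, averaged across 490/535/650 nm. Samples were compound dilutions from DMSO stock, 1 μL into 99 μL buffer at pH 1.5, 4.5, 6.8 or 7.4.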

CYP1A2 = CYP1A2 (Homo sapiens (Human), UniProt P05177); assay: CYP enzyme inhibition, fluorescent substrate (CEC)
CYP1A2, sequence (P05177 whole entry): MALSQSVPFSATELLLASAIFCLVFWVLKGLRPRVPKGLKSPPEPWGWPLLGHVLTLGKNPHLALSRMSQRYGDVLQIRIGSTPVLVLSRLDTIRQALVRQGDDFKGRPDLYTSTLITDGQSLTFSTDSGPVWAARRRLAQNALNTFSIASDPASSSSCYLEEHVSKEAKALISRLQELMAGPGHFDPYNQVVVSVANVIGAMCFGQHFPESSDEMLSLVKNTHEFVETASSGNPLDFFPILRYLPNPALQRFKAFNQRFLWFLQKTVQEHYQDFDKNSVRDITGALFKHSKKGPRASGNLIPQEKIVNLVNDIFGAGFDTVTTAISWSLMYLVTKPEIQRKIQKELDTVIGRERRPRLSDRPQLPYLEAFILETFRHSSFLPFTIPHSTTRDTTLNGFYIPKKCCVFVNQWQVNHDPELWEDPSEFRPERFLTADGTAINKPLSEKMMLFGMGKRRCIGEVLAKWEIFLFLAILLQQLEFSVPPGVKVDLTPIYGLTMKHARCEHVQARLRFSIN
Outline: (§2)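 IC50 derived from loss of fluorescent metabolite across a 10-point 1:1 dilution series. CYP2D6: 1.5 pmol enzyme, 1.5 μM AMMC, 30 min at 37 °C, 409/530 nm; CYP1A2: 0.5 pmol, 5 μM CEC, 15 min, 409/460 nm. Compounds pre-incubated 10 min in NADPH-regenerating mix.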

CYP2C19 = CYP2C19 (Homo sapiens (Human), UniProt P33261); assay: CYP enzyme inhibition, fluorescent substrate (CEC)
CYP2C19, sequence (P33261 whole entry): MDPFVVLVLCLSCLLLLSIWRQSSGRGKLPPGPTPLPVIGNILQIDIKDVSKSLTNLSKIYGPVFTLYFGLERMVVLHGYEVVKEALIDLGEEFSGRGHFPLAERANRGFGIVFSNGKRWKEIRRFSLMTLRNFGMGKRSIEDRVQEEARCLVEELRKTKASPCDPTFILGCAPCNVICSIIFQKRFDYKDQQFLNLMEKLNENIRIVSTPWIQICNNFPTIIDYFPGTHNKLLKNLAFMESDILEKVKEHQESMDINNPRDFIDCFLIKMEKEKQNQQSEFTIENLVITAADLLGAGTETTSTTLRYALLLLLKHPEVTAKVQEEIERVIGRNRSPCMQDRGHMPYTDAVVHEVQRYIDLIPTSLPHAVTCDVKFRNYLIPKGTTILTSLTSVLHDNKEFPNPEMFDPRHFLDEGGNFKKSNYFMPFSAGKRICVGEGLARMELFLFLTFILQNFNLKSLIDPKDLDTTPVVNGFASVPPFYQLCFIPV
Outline: (§3)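 First, 100 mM DMSO stocks are diluted into acetonitrile, then twofold through co-factor mix for 10 points. Next, mixtures are preincubated 10 min at 37 °C.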

CYP2C9 = CYP2C9 (Homo sapiens (Human), UniProt P11712); assay: CYP enzyme inhibition, fluorescent substrate (MFC)
CYP2C9, sequence (P11712 whole entry): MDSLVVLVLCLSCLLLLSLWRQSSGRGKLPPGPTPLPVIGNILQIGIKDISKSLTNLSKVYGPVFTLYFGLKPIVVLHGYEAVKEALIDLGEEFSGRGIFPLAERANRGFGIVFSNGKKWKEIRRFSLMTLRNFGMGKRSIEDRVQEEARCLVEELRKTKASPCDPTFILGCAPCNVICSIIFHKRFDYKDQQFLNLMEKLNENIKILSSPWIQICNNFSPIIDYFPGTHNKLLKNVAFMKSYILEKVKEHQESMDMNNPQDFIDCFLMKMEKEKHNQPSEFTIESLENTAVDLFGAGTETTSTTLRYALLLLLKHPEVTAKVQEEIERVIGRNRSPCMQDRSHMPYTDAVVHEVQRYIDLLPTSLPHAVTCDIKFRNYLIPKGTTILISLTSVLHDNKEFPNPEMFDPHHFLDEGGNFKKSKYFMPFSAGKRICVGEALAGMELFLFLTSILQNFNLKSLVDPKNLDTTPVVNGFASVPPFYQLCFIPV
Outline: as §3

CYP2D6 = CYP2D6 (Homo sapiens (Human), UniProt P10635); assay: CYP enzyme inhibition, fluorescent substrate (AMMC); format: in vitro ADME; details: read-out: Cyp IC50 2D6
CYP2D6, sequence (P10635 whole entry): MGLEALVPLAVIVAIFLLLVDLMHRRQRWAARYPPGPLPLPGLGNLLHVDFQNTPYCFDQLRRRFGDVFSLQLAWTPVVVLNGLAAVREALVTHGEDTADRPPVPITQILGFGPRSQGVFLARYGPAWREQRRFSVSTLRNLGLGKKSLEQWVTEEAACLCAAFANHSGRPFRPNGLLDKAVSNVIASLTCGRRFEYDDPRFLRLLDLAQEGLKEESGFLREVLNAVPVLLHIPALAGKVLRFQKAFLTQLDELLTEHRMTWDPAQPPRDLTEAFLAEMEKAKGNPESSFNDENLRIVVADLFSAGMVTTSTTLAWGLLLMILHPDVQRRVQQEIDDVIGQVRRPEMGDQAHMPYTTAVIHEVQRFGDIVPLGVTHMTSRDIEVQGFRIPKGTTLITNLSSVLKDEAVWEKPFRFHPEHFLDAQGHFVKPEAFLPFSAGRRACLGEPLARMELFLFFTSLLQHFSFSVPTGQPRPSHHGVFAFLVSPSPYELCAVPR
Outline: as §2

CYP3A4(BFC) = CYP3A4(BFC) (Homo sapiens (Human), UniProt P08684); assay: CYP enzyme inhibition, fluorescent substrate BFC
CYP3A4(BFC), sequence (P08684 whole entry): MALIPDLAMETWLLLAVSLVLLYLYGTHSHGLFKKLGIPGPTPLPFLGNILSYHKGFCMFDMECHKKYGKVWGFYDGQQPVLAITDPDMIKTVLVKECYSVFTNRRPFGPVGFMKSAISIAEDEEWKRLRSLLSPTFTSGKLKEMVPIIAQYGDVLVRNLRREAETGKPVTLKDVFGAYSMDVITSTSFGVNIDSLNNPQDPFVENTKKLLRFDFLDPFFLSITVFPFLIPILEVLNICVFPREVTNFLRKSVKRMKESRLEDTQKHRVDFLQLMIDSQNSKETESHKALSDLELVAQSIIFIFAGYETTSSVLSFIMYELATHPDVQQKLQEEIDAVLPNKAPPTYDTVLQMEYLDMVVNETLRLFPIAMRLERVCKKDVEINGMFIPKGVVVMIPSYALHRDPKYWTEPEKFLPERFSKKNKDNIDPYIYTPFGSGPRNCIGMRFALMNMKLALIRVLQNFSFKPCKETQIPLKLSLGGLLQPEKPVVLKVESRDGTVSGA
Outline: as §3

CYP3A4(BQ) = CYP3A4(BQ) (Homo sapiens (Human), UniProt P08684); assay: CYP enzyme inhibition, fluorescent substrate BQ
CYP3A4(BQ), sequence (P08684 whole entry): as above
Outline: as §3

[4] = read-out: Cyp IC50 2C19, CYP2C19, substrate CEC
[5] = read-out: Cyp IC50 3A4(BFC), CYP3A4, substrate BFC
[6] = read-out: Cyp IC50 3A4(BQ), CYP3A4, substrate BQ
[7] = read-out: Cyp IC50 2C9, CYP2C9, substrate MFC

B-Raf (Homo sapiens (Human), UniProt P15056), sequence (P15056 whole entry): as the sequence (P15056 whole entry V600E) above, with E600V counted along it

Structure (SMILES) | IC50 (B-Raf [1]) [µM] | Biochemical activity ratio B/V600E (B-Raf [2]) | Biochemical activity ratio B/C (B-Raf [2]) | IC50 (B-Raf V600E) [µM] | Biochemical activity ratio V600E/C (B-Raf V600E) | IC50 (c-Raf-1) [µM] | turbidity threshold (L, M, H) 1.4 [3] | turbidity threshold (L, M, H) 4.5 [3] | turbidity threshold (L, M, H) 6.8 [3] | turbidity threshold (L, M, H) 7.4 [3] | IC50 (CYP1A2; human, 15 min) [µM] | IC50 (CYP2C19; [4]) [µM] | IC50 (CYP2C9) [µM] | IC50 (CYP2D6) [µM] | IC50 (CYP3A4(BFC); [5]) [µM] | IC50 (CYP3A4(BQ); [6]) [µM] | IC50 (CYP2C9; [7]) [µM] | IC50 (CYP3A4(BFC)) [µM] | also measured
COc1ncnc2[nH]cc(C(=O)c3c(F)ccc(NS(=O)(=O)CC(C)C)c3F)c12 [P-1004, 2-Methyl-propane-1-sulfonic acid [2,4-difluoro-3-(4-methoxy-7H-pyrrolo[2,3-d]pyrimidine-5-carbonyl)-phenyl]-amide] | > 0.1 | >10 | >10 | < 0.1 | 0.1-10 | < 0.1 | H (high solubility if the threshold concentration is >250 μm) | H (high solubility if the threshold concentration is >250 μm) | H (high solubility if the threshold concentration is >250 μm) | H (high solubility if the threshold concentration is >250 μm) | > 10 | > 10 | 5 to 10 | > 10 | > 10 | > 10 |  |  | 
CCCc1ccc(S(=O)(=O)Nc2ccc(F)c(C(=O)c3c[nH]c4ncnc(OC)c34)c2F)cc1 [P-1005, N-[2,4-Difluoro-3-(4-methoxy-7H-pyrrolo[2,3-d]pyrimidine-5-carbonyl)-phenyl]-4-propyl-benzenesulfonamide] | > 0.1 | 0.1-10 | 0.1-10 | > 0.1 | >10 | < 0.1 | H (high solubility if the threshold concentration is >250 μm) | L (low solubility if the threshold concentration is <31.3 μM) | L (low solubility if the threshold concentration is <31.3 μM) | L (low solubility if the threshold concentration is <31.3 μM) | > 10 |  |  | > 10 |  | > 10 | > 10 | 5 to 10 | IC50 (CYP2C19): 5 to 10 µM
CCOc1ncnc2[nH]cc(C(=O)c3c(F)ccc(NS(=O)(=O)c4ccc(C(F)(F)F)cc4)c3F)c12 [P-1006, N-[3-(4-Ethoxy-7H-pyrrolo[2,3-d]pyrimidine-5-carbonyl)-2,4-difluoro-phenyl]-4-trifluoromethyl-benzenesulfonamide] | > 0.1 | 0.1-10 | 0.1-10 | > 0.1 | >10 | < 0.1 | L (low solubility if the threshold concentration is <31.3 μM) | L (low solubility if the threshold concentration is <31.3 μM) | L (low solubility if the threshold concentration is <31.3 μM) | H (high solubility if the threshold concentration is >250 μm) |  | > 10 | 5 to 10 | > 10 | < 5 | > 10 |  |  | IC50 (CYP1A2; read-out: Cyp IC50 1A2, CYP1A2, substrate CEC): > 10 µM
CCCc1ccc(S(=O)(=O)Nc2ccc(F)c(C(=O)c3c[nH]c4ncnc(C)c34)c2F)cc1 [P-1007, N-[2,4-Difluoro-3-(4-methyl-7H-pyrrolo[2,3-d]pyrimidine-5-carbonyl)-phenyl]-4-propyl-benzenesulfonamide] | < 0.1 | 0.1-10 | 0.1-10 | > 0.1 | >10 | < 0.1 | L (low solubility if the threshold concentration is <31.3 μM) | L (low solubility if the threshold concentration is <31.3 μM) | L (low solubility if the threshold concentration is <31.3 μM) | L (low solubility if the threshold concentration is <31.3 μM) | > 10 | > 10 |  | > 10 |  |  | > 10 | 5 to 10 | IC50 (CYP3A4(BQ)): 5 to 10 µM
